Measurements published in ChEMBL document CHEMBL3580594, “Synthesis and biological evaluation of 4-substituted fluoronucleoside analogs for the treatment of hepatitis B virus infection” (J Med Chem, 2015).

Key:
Mus musculus [1] = assay: Acute toxicity in KM mouse assessed as death at 400 mg/kg, iv suspended in normal saline; format: organism-based; conditions: in vivo
Mus musculus [2] = assay: Toxicity in KM mouse assessed as peripheral WBC number in blood per liter at 20 mg/kg/day, po 5 doses (reference value: 7.47 +/- 33.77 /L x 10^-9 cells); format: organism-based; conditions: in vivo
Hepatitis B virus [3] = assay: Antiviral activity against Hepatitis B virus in HepG2.2.15 cells assessed as inhibition of extracellular viral DNA replication at 5 uM after 6 days by real-time FQ-PCR analysis; format: functional; conditions: HepG2 2.2.15, 144 h
Hepatitis B virus [4] = assay: Antiviral activity against Hepatitis B virus in HepG2.2.15 cells assessed as inhibition of intracellular/extracellular viral DNA replication at 0.2 to 5 uM by real-time FQ-PCR analysis; format: functional, organism-based; conditions: HepG2 2.2.15, TDE = time-dependent effect
Hepatitis B virus [5] = assay: Antiviral activity against Hepatitis B virus in HepG2.2.15 cells assessed as inhibition of intracellular viral DNA replication at 5 uM after 6 days by real-time FQ-PCR analysis; format: functional; conditions: HepG2 2.2.15, 144 h
Duck hepatitis B virus [6] = assay: Antiviral activity against duck Hepatitis B virus infected in duck assessed as inhibition of viral DNA replication in liver at 0.2 mg/kg/day, po treatment initiated at day 10 after infection relative to control; format: functional; conditions: 240 h
Hepatitis B virus [7] = assay: Antiviral activity against Hepatitis B virus in HepG2.2.15 cells assessed as inhibition of extracellular viral DNA replication at 5 uM after 3 days by real-time FQ-PCR analysis; format: functional; conditions: HepG2 2.2.15, 72 h
Hepatitis B virus [8] = assay: Antiviral activity against Hepatitis B virus in HepG2.2.15 cells assessed as inhibition of intracellular viral DNA replication at 1 uM after 9 days by real-time FQ-PCR analysis; format: functional; conditions: HepG2 2.2.15, 216 h
Duck hepatitis B virus [9] = assay: Antiviral activity against duck Hepatitis B virus infected in duck assessed as inhibition of viral DNA replication in liver at 1 mg/kg/day, po treatment initiated at day 10 after infection relative to control; format: functional; conditions: 240 h
Duck hepatitis B virus [10] = assay: Antiviral activity against duck Hepatitis B virus infected in duck assessed as inhibition of viral DNA replication in serum at 1 mg/kg/day, po treatment initiated at day 10 after infection relative to control; format: functional; conditions: 240 h
Mus musculus [11] = assay: Toxicity in KM mouse assessed as peripheral WBC number in blood per liter at 80 mg/kg, po single dose after 48 hrs (reference value: 11.10 x 2.69/L x 10^-9); format: organism-based; conditions: in vivo
Hepatitis B virus [12] = assay: Antiviral activity against Hepatitis B virus in HepG2.2.15 cells assessed as inhibition of intracellular/extracellular viral DNA replication after 3 to 9 days by real-time FQ-PCR analysis; format: functional, organism-based; conditions: HepG2 2.2.15
Mus musculus [13] = assay: Toxicity in KM mouse assessed as micronucleus frequency in bone marrow polychromatic erythrocyte at 20 mg/kg, po single dose after 48 hrs (reference value: 1.20 +/- 0.45 %); format: organism-based; conditions: in vivo
Hepatitis B virus [14] = assay: Antiviral activity against Hepatitis B virus in HepG2.2.15 cells assessed as inhibition of intracellular viral DNA replication at 1 uM after 6 days by real-time FQ-PCR analysis; format: functional; conditions: HepG2 2.2.15, 144 h
Hepatitis B virus [15] = assay: Antiviral activity against Hepatitis B virus in HepG2.2.15 cells assessed as inhibition of extracellular viral DNA replication at 0.2 uM after 9 days by real-time FQ-PCR analysis; format: functional; conditions: HepG2 2.2.15, 216 h
Rattus norvegicus [16] = assay: In vivo drug metabolism in rat urine sample assessed as 1-((2R,3S,4R,5R)-5-azido-3-fluoro-4-hydroxy-5-(hydroxymethyl)tetrahydrofuran-2-yl)-4-(2-hydroxycyclopropylamino)pyrimidin-2(1H)-one formation by LC-MS/MS analysis; format: ADME, organism-based
Mus musculus [17] = assay: Toxicity in KM mouse assessed as micronucleus frequency in bone marrow polychromatic erythrocyte at 5 mg/kg, po single dose after 48 hrs (reference value: 1.20 +/- 0.45 %); format: organism-based; conditions: in vivo
Duck hepatitis B virus [18] = assay: Antiviral activity against duck Hepatitis B virus infected in duck assessed as inhibition of viral DNA replication in liver at 0.04 mg/kg/day, po treatment initiated at day 10 after infection relative to control; format: functional; conditions: 240 h
Duck hepatitis B virus [19] = assay: Antiviral activity against duck Hepatitis B virus infected in duck assessed as inhibition of viral DNA replication in liver at 1 mg/kg/day, po treatment initiated at day 5 after infection relative to control; format: functional; conditions: 120 h
Hepatitis B virus [20] = assay: Antiviral activity against Hepatitis B virus in HepG2.2.15 cells assessed as inhibition of intracellular viral DNA replication at 5 uM after 9 days by real-time FQ-PCR analysis; format: functional; conditions: HepG2 2.2.15, 216 h
[21] = Cytotoxicity against human HepG2.2.15 cells by MTT assay; format: cell-based, HepG2 2.2.15
Rattus norvegicus [22] = species: Rattus norvegicus; assay: Drug metabolism in rat urine sample assessed as 4-amino-1-((2R,3S,4R,5R)-5-azido-3-fluoro-4-hydroxy-5-(hydroxymethyl)tetrahydrofuran-2-yl)pyrimidin-2(1H)-one formation by NMR spectrum; format: ADME, organism-based; conditions: in vivo
Hepatitis B virus [23] = assay: Antiviral activity against Hepatitis B virus in HepG2.2.15 cells assessed as inhibition of extracellular viral DNA replication at 5 uM after 9 days by real-time FQ-PCR analysis; format: functional; conditions: HepG2 2.2.15, 216 h
Mus musculus [24] = assay: Toxicity in KM mouse assessed as micronucleus frequency in bone marrow polychromatic erythrocyte at 40 mg/kg, po single dose after 48 hrs (reference value: 2.20 +/- 0.84 %); format: organism-based; conditions: in vivo
Hepatitis B virus [25] = assay: Antiviral activity against Hepatitis B virus in HepG2.2.15 cells assessed as inhibition of intracellular viral DNA replication at 0.2 uM after 6 days by real-time FQ-PCR analysis; format: functional; conditions: HepG2 2.2.15, 144 h
Duck hepatitis B virus [26] = assay: Antiviral activity against duck Hepatitis B virus infected in duck assessed as inhibition of viral DNA replication in liver at 0.04 mg/kg/day, po treatment initiated at day 5 after infection relative to control; format: functional; conditions: 120 h
Mus musculus [27] = assay: Acute toxicity in KM mouse assessed as mortality at 3 g/kg, iv suspended in 0.5% CMC/Na solution after 14 days; format: organism-based; conditions: in vivo, 3000 mg/kg, 336 h
Duck hepatitis B virus [28] = assay: Antiviral activity against duck Hepatitis B virus infected in duck assessed as inhibition of viral DNA replication in liver at 0.04 to 20 mg/kg, po; format: functional, organism-based; conditions: TDE = time-dependent effect
Mus musculus [29] = assay: Toxicity in KM mouse assessed as peripheral WBC number in blood per liter at 20 mg/kg, po single dose after 48 hrs (reference value: 11.10 x 2.69/L x 10^-9 cells); format: organism-based; conditions: in vivo
Hepatitis B virus [30] = assay: Antiviral activity against Hepatitis B virus in HepG2.2.15 cells assessed as inhibition of extracellular viral DNA replication at 1 uM after 3 days by real-time FQ-PCR analysis; format: functional; conditions: HepG2 2.2.15, 72 h
Hepatitis B virus [31] = assay: Antiviral activity against Hepatitis B virus in HepG2.2.15 cells assessed as inhibition of intracellular viral DNA replication at 0.2 uM after 3 days by real-time FQ-PCR analysis; format: functional; conditions: HepG2 2.2.15, 72 h
Rattus norvegicus [32] = species: Rattus norvegicus; assay: Drug metabolism in rat urine sample assessed as 1-((2R,3S,4R,5R)-5-azido-3-fluoro-4-hydroxy-5-(hydroxymethyl)tetrahydrofuran-2-yl)-4-(2,3-dihydroxycyclopropylamino)pyrimidin-2(1H)-one formation by LC-MS/MS analysis; format: ADME, organism-based; conditions: in vivo
Mus musculus [33] = assay: Toxicity in KM mouse assessed as peripheral WBC number in blood per liter at 5 mg/kg/day, po 5 doses (reference value: 7.47 +/- 33.77 /L x 10^-9 cells); format: organism-based; conditions: in vivo

[N-]=[N+]=N[C@]1(CO)O[C@@H](n2ccc(NC3CC3)nc2=O)[C@@H](F)[C@@H]1O
Activity (Mus musculus [1]): Toxic
Activity (Mus musculus [2]): 6.53 ×10⁹ /L
inhibition at 5 µM (Hepatitis B virus [3]): 84%
inhibition (Hepatitis B virus [4]): tde
inhibition at 5 µM (Hepatitis B virus [5]): 53%
inhibition in vivo at 0.2 mg/kg/day (Duck hepatitis B virus [6]): 68.7%
inhibition at 5 µM (Hepatitis B virus [7]): 53%
inhibition at 1 µM (Hepatitis B virus [8]): 56.9%
inhibition in vivo at 1 mg/kg/day (Duck hepatitis B virus [9]): 82.1%
inhibition in vivo at 1 mg/kg/day (Duck hepatitis B virus [10]): 74.2%
Activity (Mus musculus [11]): 8.26 ×10⁹ /L
inhibition (Hepatitis B virus [12]): Dose-dependent effect
Activity (Mus musculus [13]): 2.8%
inhibition at 1 µM (Hepatitis B virus [14]): 49.5%
inhibition at 0.2 µM (Hepatitis B virus [15]): 52.1%
Drug metabolism (Rattus norvegicus [16]): metabolite_detected
Activity (Mus musculus [17]): 1.2%
inhibition in vivo at 0.04 mg/kg/day (Duck hepatitis B virus [18]): 62.8%
inhibition in vivo at 1 mg/kg/day (Duck hepatitis B virus [19]): 64.1%
inhibition at 5 µM (Hepatitis B virus [20]): 68.2%
CC50 [21]: 391 µM
Drug metabolism (Rattus norvegicus [22]): metabolite_detected
inhibition at 5 µM (Hepatitis B virus [23]): 87.6%
Activity (Mus musculus [24]): 1.4%
inhibition at 0.2 µM (Hepatitis B virus [25]): 31.7%
inhibition in vivo at 0.04 mg/kg/day (Duck hepatitis B virus [26]): 34.8%
Activity (Mus musculus [27]): Non-toxic
inhibition (Duck hepatitis B virus [28]): tde
Activity (Mus musculus [29]): 8.84 ×10⁹ /L
inhibition at 1 µM (Hepatitis B virus [30]): 54%
inhibition at 0.2 µM (Hepatitis B virus [31]): 20.6%
Drug metabolism (Rattus norvegicus [32]): metabolite_detected
Activity (Mus musculus [33]): 6.05 ×10⁹ /L
